Format in all cases: biochemical
What all share (conditions): 10 nM JAK enzyme, 800 nM Abl peptide, room temperature 75 min

In one assay the target is JAK1 (Homo sapiens, UniProt P23458). Nature of the assay: JAK assay (KINASE-GLO luminescent kinase assay), JAK1. In outline: (§1)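 The 2× mix gave 10 nM kinase, 800 nM Abl peptide and 2 µM DTT, and ATP was added as a 4× stock (2 µM), in HEPES pH 7.5 buffer. Compounds ran as an 11-point series, 100 µM–10 pM final in 2.5% DMSO, for 75 min at RT. Remaining ATP was read by luminescence against DMSO control, and 4-parameter IC50s were converted to Ki by Cheng-Prusoff.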
JAK1, sequence (P23458 whole entry): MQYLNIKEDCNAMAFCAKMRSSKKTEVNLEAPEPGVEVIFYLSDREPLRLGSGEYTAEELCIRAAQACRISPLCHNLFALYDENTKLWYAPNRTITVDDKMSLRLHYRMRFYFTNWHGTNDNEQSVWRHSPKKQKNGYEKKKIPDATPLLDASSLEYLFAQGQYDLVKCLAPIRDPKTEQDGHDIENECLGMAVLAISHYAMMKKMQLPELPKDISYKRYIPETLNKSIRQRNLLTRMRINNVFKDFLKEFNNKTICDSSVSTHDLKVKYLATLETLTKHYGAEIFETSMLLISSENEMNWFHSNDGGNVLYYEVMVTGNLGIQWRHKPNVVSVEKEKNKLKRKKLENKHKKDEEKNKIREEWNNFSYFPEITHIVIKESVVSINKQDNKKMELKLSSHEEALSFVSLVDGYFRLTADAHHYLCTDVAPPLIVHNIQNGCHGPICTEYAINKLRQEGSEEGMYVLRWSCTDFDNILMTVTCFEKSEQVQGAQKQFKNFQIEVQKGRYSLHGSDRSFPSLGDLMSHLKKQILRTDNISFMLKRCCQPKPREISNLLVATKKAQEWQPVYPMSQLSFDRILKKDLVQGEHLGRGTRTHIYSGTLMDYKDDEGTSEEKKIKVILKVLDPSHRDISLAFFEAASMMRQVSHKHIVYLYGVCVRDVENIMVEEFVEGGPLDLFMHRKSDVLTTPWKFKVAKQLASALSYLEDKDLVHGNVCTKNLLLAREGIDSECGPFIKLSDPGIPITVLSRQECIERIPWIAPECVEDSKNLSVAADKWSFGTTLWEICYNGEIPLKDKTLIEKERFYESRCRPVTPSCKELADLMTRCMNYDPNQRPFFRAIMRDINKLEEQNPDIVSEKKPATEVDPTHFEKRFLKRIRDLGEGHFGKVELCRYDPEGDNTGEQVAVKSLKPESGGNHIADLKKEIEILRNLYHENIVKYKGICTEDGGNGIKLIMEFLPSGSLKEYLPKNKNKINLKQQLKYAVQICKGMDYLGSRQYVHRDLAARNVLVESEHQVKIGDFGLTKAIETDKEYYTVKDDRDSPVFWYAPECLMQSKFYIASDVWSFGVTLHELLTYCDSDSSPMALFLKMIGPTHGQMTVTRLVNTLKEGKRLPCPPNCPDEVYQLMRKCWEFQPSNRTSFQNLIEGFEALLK
Background: Kinase-Glo measures the ATP left after a reaction by luminescence.

In another assay the target is JAK2 (Homo sapiens, UniProt O60674). Nature of the assay: JAK assay (KINASE-GLO luminescent kinase assay), JAK2. In outline: as §1
JAK2, sequence (O60674 whole entry): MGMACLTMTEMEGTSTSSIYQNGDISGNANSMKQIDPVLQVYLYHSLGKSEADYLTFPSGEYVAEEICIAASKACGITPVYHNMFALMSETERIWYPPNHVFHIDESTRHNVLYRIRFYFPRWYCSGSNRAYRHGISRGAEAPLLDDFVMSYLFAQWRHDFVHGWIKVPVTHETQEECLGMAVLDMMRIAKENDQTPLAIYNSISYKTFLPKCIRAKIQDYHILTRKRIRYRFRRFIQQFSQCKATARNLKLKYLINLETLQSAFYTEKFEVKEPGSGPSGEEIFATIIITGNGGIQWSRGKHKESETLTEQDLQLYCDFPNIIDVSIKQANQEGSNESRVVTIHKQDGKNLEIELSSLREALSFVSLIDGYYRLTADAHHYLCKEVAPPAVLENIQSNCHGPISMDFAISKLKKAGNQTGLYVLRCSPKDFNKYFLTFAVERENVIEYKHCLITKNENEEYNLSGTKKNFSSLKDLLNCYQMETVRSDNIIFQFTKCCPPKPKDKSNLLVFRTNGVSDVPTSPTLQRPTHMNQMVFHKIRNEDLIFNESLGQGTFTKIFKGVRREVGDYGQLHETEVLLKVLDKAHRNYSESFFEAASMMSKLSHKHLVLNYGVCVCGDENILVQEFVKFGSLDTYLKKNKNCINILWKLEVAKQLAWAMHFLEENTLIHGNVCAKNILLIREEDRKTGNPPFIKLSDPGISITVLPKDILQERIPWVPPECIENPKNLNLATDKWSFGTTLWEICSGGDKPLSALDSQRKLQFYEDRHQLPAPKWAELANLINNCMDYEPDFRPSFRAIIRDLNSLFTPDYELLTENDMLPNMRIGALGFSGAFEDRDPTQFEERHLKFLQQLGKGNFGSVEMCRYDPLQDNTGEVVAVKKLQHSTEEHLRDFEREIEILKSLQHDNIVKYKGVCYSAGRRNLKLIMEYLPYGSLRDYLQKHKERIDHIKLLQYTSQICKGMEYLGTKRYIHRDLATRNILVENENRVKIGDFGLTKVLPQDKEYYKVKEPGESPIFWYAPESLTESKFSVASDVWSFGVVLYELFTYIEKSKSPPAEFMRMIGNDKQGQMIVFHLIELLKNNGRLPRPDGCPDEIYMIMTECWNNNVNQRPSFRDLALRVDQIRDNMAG
A further assay addresses T1, JAK3 (Homo sapiens, UniProt P52333).
T1 sequence (P52333 1-1124): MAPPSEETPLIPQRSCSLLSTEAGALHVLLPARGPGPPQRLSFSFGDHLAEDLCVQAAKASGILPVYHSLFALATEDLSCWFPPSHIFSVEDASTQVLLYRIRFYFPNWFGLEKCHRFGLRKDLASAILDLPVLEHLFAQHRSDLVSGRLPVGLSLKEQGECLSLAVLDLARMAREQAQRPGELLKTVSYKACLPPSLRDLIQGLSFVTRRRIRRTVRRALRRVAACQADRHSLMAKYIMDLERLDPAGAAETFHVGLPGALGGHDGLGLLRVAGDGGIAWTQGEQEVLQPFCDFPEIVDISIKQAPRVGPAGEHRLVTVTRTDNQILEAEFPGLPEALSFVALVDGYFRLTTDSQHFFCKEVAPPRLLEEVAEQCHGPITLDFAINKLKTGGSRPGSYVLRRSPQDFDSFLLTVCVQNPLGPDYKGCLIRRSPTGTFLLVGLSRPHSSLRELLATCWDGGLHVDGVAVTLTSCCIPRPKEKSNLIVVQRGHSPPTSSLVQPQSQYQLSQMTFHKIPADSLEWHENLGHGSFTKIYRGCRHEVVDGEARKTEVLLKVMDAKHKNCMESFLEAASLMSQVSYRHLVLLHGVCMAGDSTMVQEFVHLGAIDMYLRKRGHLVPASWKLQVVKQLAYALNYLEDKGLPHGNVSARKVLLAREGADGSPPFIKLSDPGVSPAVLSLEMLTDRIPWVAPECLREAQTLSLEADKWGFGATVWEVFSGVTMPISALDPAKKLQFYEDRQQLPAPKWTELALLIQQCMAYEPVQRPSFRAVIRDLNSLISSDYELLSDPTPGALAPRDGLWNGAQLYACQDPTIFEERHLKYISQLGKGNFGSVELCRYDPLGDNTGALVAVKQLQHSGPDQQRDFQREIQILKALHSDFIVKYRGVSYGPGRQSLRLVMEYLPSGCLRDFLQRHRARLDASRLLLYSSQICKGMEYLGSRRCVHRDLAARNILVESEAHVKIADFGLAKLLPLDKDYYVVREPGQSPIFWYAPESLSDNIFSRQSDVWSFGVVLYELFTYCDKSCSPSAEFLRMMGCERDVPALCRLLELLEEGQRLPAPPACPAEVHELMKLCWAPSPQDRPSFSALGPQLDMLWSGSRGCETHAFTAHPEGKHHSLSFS
Nature of the assay: JAK assay (KINASE-GLO luminescent kinase assay), JAK3. A digest of the protocol: as §1

Another assay has as its target TYK2 (Homo sapiens, UniProt P29597). Kind of assay: JAK assay (KINASE-GLO luminescent kinase assay), TYK2.

TYK2, sequence (P29597 whole entry): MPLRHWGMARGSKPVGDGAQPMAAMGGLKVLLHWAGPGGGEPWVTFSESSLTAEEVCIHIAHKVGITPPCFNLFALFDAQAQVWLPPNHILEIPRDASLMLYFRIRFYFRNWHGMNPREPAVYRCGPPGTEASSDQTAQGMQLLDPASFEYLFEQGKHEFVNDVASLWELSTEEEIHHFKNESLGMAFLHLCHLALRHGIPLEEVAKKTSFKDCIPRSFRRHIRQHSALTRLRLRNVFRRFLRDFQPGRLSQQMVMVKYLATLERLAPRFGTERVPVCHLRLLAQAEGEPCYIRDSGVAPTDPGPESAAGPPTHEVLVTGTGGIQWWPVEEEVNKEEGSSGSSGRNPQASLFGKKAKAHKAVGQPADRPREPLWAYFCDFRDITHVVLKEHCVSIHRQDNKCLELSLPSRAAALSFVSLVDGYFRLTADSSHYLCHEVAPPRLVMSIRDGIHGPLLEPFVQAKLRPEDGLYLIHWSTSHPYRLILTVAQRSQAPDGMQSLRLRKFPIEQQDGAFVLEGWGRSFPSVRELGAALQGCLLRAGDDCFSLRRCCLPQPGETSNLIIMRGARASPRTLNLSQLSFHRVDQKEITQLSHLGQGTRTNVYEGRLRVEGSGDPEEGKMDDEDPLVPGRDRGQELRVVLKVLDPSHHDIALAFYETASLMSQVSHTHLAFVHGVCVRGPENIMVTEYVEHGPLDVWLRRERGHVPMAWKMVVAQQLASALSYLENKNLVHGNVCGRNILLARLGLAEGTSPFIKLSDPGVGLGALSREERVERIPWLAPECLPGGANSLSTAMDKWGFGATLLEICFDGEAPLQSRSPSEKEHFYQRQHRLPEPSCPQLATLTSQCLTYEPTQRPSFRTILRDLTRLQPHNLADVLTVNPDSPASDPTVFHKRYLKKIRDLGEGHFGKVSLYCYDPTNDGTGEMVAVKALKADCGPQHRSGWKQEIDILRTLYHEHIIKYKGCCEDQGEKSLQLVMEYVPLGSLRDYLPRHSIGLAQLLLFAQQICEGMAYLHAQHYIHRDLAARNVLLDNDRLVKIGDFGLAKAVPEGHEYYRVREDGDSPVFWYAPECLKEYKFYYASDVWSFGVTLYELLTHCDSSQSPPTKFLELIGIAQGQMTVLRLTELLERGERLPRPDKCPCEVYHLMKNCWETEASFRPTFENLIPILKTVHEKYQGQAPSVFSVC

As for `Cc1cnc(Nc2ccc(N3CC4(COC4)C3)cc2)nc1-c1cnn(CC2(CF)CC2)c1` [CC1═C(N═C(NC2═CC═C(C═C2)N3CC4], the half-inhibitory concentration (IC50) (in general, the concentration that gives 50% inhibition) at JAK1 is less than 100 nM; on JAK2, less than 10 nM; on JAK3 it was less than 10 nM; at TYK2 it was less than 100 nM.

Regarding `Cc1cnc(Nc2ccc(OCCN(C)C)cc2)nc1-c1cnn(CC2(CF)CC2)c1` [(C)CCOC1═CC═C(NC2═NC], the IC50 against JAK1 is less than 100 nM; against JAK2, less than 10 nM; against JAK3, less than 100 nM; against TYK2 it was less than 100 nM.

Consider `Cc1cnc(Nc2cc(CN(C)C)ns2)nc1-c1cnn(CC2(CF)CC2)c1` [CN(C)CC1═NSC(═C1)NC2═NC(═C], for which the IC50 was less than 100 nM against JAK1, less than 10 nM on JAK2, less than 100 nM on JAK3 and less than 10 nM at TYK2.

`Cc1cnc(NCCCN2CCOCC2)nc1-c1cnn(CCC#N)c1` [CC1═C(N═C(NCCCN2CCOCC2)N═C1)C3═C[N]]: the IC50 is greater than 50000 nM against JAK1, less than 100000 nM at JAK2, greater than 50000 nM against JAK3 and less than 100000 nM at TYK2.

As to `Cc1cnc(Nc2ccc(N3CC(N(C)C)C3)cc2)nc1-c1cnn(CC2(CF)CC2)c1` [CN(C)C1CN(C1)C2═CC═C(NC3═NC], the IC50 against JAK1 is less than 100 nM; on JAK2, less than 10 nM; on JAK3, less than 10 nM; against TYK2, less than 100 nM.

`CC(C)(C)OC(=O)N1CC(CO)(Cn2cc(-c3nc(Nc4ccc(C(N)=O)cc4)ncc3Cl)cn2)C1` [CC(C)(C)OC(═O)N1CC(CO)(C1)C[N]2C═C]: the IC50 at JAK1 was less than 1000 nM; at JAK2, less than 100 nM; at JAK3, less than 100 nM; at TYK2, less than 1000 nM.

Consider `N#CCC1(Cn2cc(-c3ccnc(Nc4ccns4)n3)cn2)CC1` [N#CCC1(CC1)C[N]2C═C(C═N2)C3═CC═NC], for which the IC50 was less than 100 nM against JAK1, less than 10 nM at JAK2, less than 100 nM on JAK3 and less than 100 nM against TYK2.

In the case of `Cn1cc(Nc2ncc(Cl)c(-c3cnn(CCC4CC4)c3)n2)cn1` [C[N]1C═C(NC2═NC(═C], the IC50 on JAK1 is less than 100 nM; at JAK2, less than 10 nM; at JAK3, less than 10 nM; at TYK2 it was less than 100 nM.

In the case of `Cc1cnc(Nc2cccc(CNC(=O)CN(C)C)c2)nc1-c1cnn(CC2(CF)CC2)c1` [CN(C)CC(═O)NCC1═CC═CC(═C1)NC2═NC], the IC50 against JAK1 is less than 100 nM; on JAK2, less than 10 nM; against JAK3 it was less than 10 nM; on TYK2 it was less than 100 nM.

Consider `Cc1cnc(Nc2cccc(CCO)c2)nc1-c1cnn(CC2(CF)CC2)c1` [CC1═C(N═C(NC2═CC(═CC═C2)CCO)N═C1)C3═C[N]], for which the IC50 against JAK1, against JAK2, at JAK3 and against TYK2 was less than 10 nM in each case.

Consider `Cc1cc(Nc2ncc(Cl)c(-c3cnn(CCC#N)c3)n2)no1` [CC1═CC(═NO1)NC2═NC(═C], for which the IC50 on JAK1 is less than 1000 nM; at JAK2, less than 100 nM; at JAK3, less than 1000 nM; on TYK2, less than 100 nM.

`Cc1cnc(NCCO)nc1-c1cnn(CCC#N)c1` [CC1═C(N═C(NCCO)N═C1)C2═C[N]]: the half-inhibitory concentration (IC50) on JAK1, against JAK2, against JAK3 and against TYK2 was less than 100000 nM in each case.

On to `COC(=O)c1cc(Nc2ncc(C)c(-c3cnn(CCC#N)c3)n2)ccc1N1CCOCC1` [COC(═O)C1═C(C═CC(═C1)NC2═NC(═C], for which the IC50 against JAK1, against JAK2, against JAK3 and against TYK2 was less than 10 nM throughout.

Regarding `OCC(O)c1cccc(Nc2ncc(Cl)c(-c3cnn(CC4(CF)CC4)c3)n2)c1` (centres unmarked) [OCC(O)C1═CC═CC(═C1)NC2═NC(═C], the IC50 against JAK1, against JAK2, on JAK3 and against TYK2 was less than 10 nM throughout.

As to `Cc1cnc(NC(=O)Oc2ccc(Cl)cc2)nc1-c1cnn(CC2(CF)CC2)c1` [CC1═C(N═C(NC(═O)OC2═CC═C], the IC50 was less than 100000 nM on JAK1, less than 1000 nM against JAK2, less than 100000 nM against JAK3 and less than 100000 nM on TYK2.

In the case of `Cc1cnc(Nc2ccc(N3CCN(C(=O)OC(C)(C)C)CC3)cc2)nc1-c1cnn(CC2(CF)CC2)c1` [CC1═C(N═C(NC2═CC═C(C═C2)N3CCN], the IC50 against JAK1 is less than 1000 nM; on JAK2, less than 10 nM; against JAK3 it was less than 100 nM; at TYK2, less than 100 nM.

In the case of `N#CCCn1cc(-c2ccnc(NC(=O)C3CC3)n2)cn1` [O═C(NC1═NC(═CC═N1)C2═C[N]], the IC50 against JAK1 is less than 100000 nM; against JAK2, less than 100000 nM; on JAK3, greater than 50000 nM; at TYK2 it was less than 100000 nM.

Regarding `N#CCCn1cc(-c2nc(Nc3ccc(N4CCOCC4)cc3F)ncc2Cl)cn1` [FC1═CC(═CC═C1NC2═NC(═C], the IC50 on JAK1 is less than 1000 nM; against JAK2, less than 10 nM; on JAK3 it was less than 100 nM; against TYK2, less than 100 nM.

With `C=CCNc1ncc(C)c(-c2cnn(CCC#N)c2)n1` [CC1═C(N═C(NCC═C)N═C1)C2═C[N]], the IC50 against JAK1, on JAK2, against JAK3 and against TYK2 was less than 100000 nM each time.

Regarding `Cc1cnc(Nc2ccc3c(c2)C(=O)N(C)C3=O)nc1-c1cnn(CC2(Cl)CC2)c1` [CN1C(═O)C2═C(C═C(NC3═NC(═C], the half-inhibitory concentration (IC50) is less than 1000 nM on JAK1, less than 10 nM on JAK2, less than 100 nM against JAK3 and less than 100 nM against TYK2.

For `Cc1cnc(Nc2cc(CNC(=O)CCN(C)C)ns2)nc1-c1cnn(CC2(CF)CC2)c1` [CN(C)CCC(═O)NCC1═NSC(═C1)NC2═NC], the IC50 against JAK1, at JAK2, on JAK3 and at TYK2 was less than 10 nM in each case.

For the compound `CNC(=O)c1cccc(Nc2ncc(Cl)c(-c3cnn(CC4(NC)CC4)c3)n2)c1` [CNC(═O)C1═CC═CC(═C1)NC2═NC], the half-maximal inhibitory concentration (IC50) against JAK1 is less than 1000 nM; against JAK2, less than 10 nM; against JAK3, less than 100 nM; against TYK2, less than 1000 nM.

Consider `N#CC1(Cn2cc(-c3nc(Nc4ccns4)ncc3Cl)cn2)CCC1` [ClC1═C(N═C(NC2═CC═NS2)N═C1)C3═C[N]], for which the IC50 was less than 100 nM on JAK1, less than 10 nM against JAK2, less than 100 nM against JAK3 and less than 100 nM against TYK2.

Turning to `Cc1cc(Nc2ncc(C)c(-c3cnn(CC4(CN(C)C)CC4)c3)n2)sn1` [CN(C)CC1(CC1)C[N]2C═C(C═N2)C3═C], the IC50 against JAK1 is less than 100 nM; at JAK2, less than 10 nM; against JAK3, less than 100 nM; against TYK2 it was less than 100 nM.

As for `CS(=O)(=O)N(c1ncc(Cl)c(-c2cnn(CCC#N)c2)n1)S(C)(=O)=O` [C[S](═O)(═O)N(C1═NC(═C], the IC50 against JAK1 was greater than 50000 nM; against JAK2, less than 100000 nM; on JAK3, greater than 50000 nM; against TYK2, greater than 50000 nM.

Take `COc1ccc(Nc2ncc(C)c(-c3cnn(CC4(CF)CC4)c3)n2)cn1` [COC1═CC═C(NC2═NC(═C]: the concentration for half-maximal inhibition (IC50) at JAK1 was less than 1000 nM; against JAK2, less than 10 nM; against JAK3, less than 100 nM; against TYK2, less than 100 nM.

As for `N#CCC1(Cn2cc(-c3nc(Nc4ccns4)ncc3C3CC3)cn2)CC1` [N#CCC1(CC1)C[N]2C═C(C═N2)C3═C], the IC50 against JAK1 is less than 100 nM; against JAK2 it was less than 10 nM; at JAK3 it was less than 100 nM; against TYK2 it was less than 100 nM.

For `CNC1(Cn2cc(-c3nc(Nc4cc(C)ns4)ncc3Cl)cn2)CC1` [CNC1(CC1)C[N]2C═C(C═N2)C3═C], the IC50 against JAK1 was less than 100 nM; at JAK2 it was less than 10 nM; against JAK3, less than 10 nM; at TYK2, less than 100 nM.

For `Cc1cnc(N2CCCCC2)nc1-c1cnn(CCC#N)c1` [CC1═C(N═C(N═C1)N2CCCCC2)C3═C[N]], the IC50 on JAK1, against JAK2, against JAK3 and at TYK2 was greater than 50000 nM each time.

The values above are taken from patent publication US20250236611A1, “PYRAZOLE COMPOUNDS AND USES THEREOF” (ALCON INC., priority 2021, published 2025).
